PubChem BioAssay AID310 (DTP/NCI, 2004)
Inconclusive results are not listed.

Test system: C3AKF1 mice, osteogenic sarcoma HE10734 s.c., tumor weight T/C
Experiment: NCI In Vivo Anticancer Drug Screen. Data for tumor model Osteogenic Sarcoma HE 10734 (subcutaneous) in C3AKF1 (CHKRF1) mice
Details: endpoint: mean tumor weight, schedule: Q01DX010 (ip), higher = larger tumour
Method: The antitumor activity of compounds was measured in mice bearing transplantable tumors. Survival or tumor size were measured and the results are expressed as the measurement made in the treated group (T) divided by the measurement made in the vehicle treated control group (C). The tumor model used in this assay is Osteogenic Sarcoma HE 10734 (subcutaneous) in C3AKF1 (CHKRF1) mice

[1] = dose: 2.5 mg/kg/injection, vehicle: carboxymethylcellulose (CMC)
[2] = dose: 125.0 mg/kg/injection, vehicle: saline
[3] = dose: 100.0 mg/kg/injection, vehicle: saline
[4] = dose: 25.0 mg/kg/injection, vehicle: saline
[5] = dose: 50.0 mg/kg/injection, vehicle: saline

## CC(C)([NH-])CO.CC(C)([NH-])CO.[Cl][Cd][Cl]
[1]
  T/C: 88 % of control
dose: 5.0 mg/kg/injection, vehicle: carboxymethylcellulose (CMC)
  T/C: 57 % of control
dose: 10.0 mg/kg/injection, vehicle: carboxymethylcellulose (CMC)
  T/C: 25 % of control

## CS(=O)(=O)OCCCCCCCCCOS(C)(=O)=O
dose: 8.0 mg/kg/injection, vehicle: carboxymethylcellulose (CMC)
  T/C: 81 % of control
dose: 16.0 mg/kg/injection, vehicle: carboxymethylcellulose (CMC)
  T/C: 81 % of control
dose: 28.0 mg/kg/injection, vehicle: carboxymethylcellulose (CMC)
  T/C: 57 % of control
dose: 55.0 mg/kg/injection, vehicle: carboxymethylcellulose (CMC)
  T/C: 37 % of control

## CC(C)CCSc1nc(N)nc2nc[nH]c12
dose: 62.0 mg/kg/injection, vehicle: saline
  T/C: 64 % of control
[2]
  T/C: 75 % of control

## CCCCSc1nc(N)nc2c1ncn2CC(C)CC (stereo not given)
[3]
  T/C: 109 % of control
dose: 200.0 mg/kg/injection, vehicle: saline
  T/C: 57 % of control

## NC(N)=N/N=C/C=N/N=C(N)N
dose: 30.0 mg/kg/injection, vehicle: carboxymethylcellulose (CMC)
  T/C: 81 % of control

## O=C(O)Cc1ccc(C2CCCCC2)cc1
dose: 150.0 mg/kg/injection, vehicle: carboxymethylcellulose (CMC)
  T/C: 95 % of control

## CSc1ncc(Br)c(Sc2nc(N)nc3nc[nH]c23)n1
dose: 1.5 mg/kg/injection, vehicle: carboxymethylcellulose (CMC)
  T/C: 103 % of control
dose: 3.0 mg/kg/injection, vehicle: carboxymethylcellulose (CMC)
  T/C: 87 % of control
dose: 6.0 mg/kg/injection, vehicle: carboxymethylcellulose (CMC)
  T/C: 55 % of control
dose: 12.0 mg/kg/injection, vehicle: carboxymethylcellulose (CMC)
  T/C: 77 % of control

## O=P1(N(CCCl)CCCl)NCCCO1 (stereo not given)
dose: 3.6 mg/kg/injection, vehicle: saline
  T/C: 172 % of control
dose: 5.5 mg/kg/injection, vehicle: saline
  T/C: 151 % of control
dose: 8.3 mg/kg/injection, vehicle: saline
  T/C: 93 % of control
[4]
  T/C: 22 % of control
[5]
  T/C: 5 % of control
[3]
  T/C: 2 % of control

## CN(C)c1ccc(/C=C\c2ccnc3ccccc23)cc1
[1]
  T/C: 50 % of control
dose: 14.0 mg/kg/injection, vehicle: carboxymethylcellulose (CMC)
  T/C: 68 % of control
dose: 22.0 mg/kg/injection, vehicle: carboxymethylcellulose (CMC)
  T/C: 44 % of control
dose: 50.0 mg/kg/injection, vehicle: carboxymethylcellulose (CMC)
  T/C: 48 % of control
dose: 75.0 mg/kg/injection, vehicle: carboxymethylcellulose (CMC)
  T/C: 27 % of control
dose: 100.0 mg/kg/injection, vehicle: carboxymethylcellulose (CMC)
  T/C: 67 % of control

## Cc1ccc(N=NN(C)C)cc1
[4]
  T/C: 83 % of control
[5]
  T/C: 46 % of control
[3]
  T/C: 46 % of control

## CCN(CC)Cc1cc(Nc2c3ccccc3nc3cc(Cl)ccc23)ccc1O
dose: 12.5 mg/kg/injection, vehicle: saline
  T/C: 78 % of control
[4]
  T/C: 111 % of control
[5]
  T/C: 70 % of control

## Cn1cnc([N+](=O)[O-])c1Sc1nc(N)nc2c1ncn2C1OC(CO)C(O)C1O (stereo not given)
dose: 7.5 mg/kg/injection, vehicle: carboxymethylcellulose (CMC)
  T/C: 96 % of control

## CS(=O)(=O)OCC(O)C(O)COS(C)(=O)=O (stereo not given)
[2]
  T/C: 121 % of control
dose: 250.0 mg/kg/injection, vehicle: saline
  T/C: 111 % of control
dose: 500.0 mg/kg/injection, vehicle: saline
  T/C: 81 % of control
dose: 1000.0 mg/kg/injection, vehicle: saline
  T/C: 101 % of control
